# Patent US10144746B2 (GLOBAL BLOOD THERAPEUTICS, INC., priority 2015, dated 2018)
# Target: Human plasma kallikrein (Homo sapiens (Human), UniProt P03952)
# Experiment: In vitro plasma kallikrein inhibition assay (chromogenic substrate D-Pro-Phe-Arg-pNa, absorbance at 405 nm, IC50 determination)
# Type: biochemical
# Conditions: read-out: KLKB1 pIC50 (converted)
# Sequence of Human plasma kallikrein (P03952 391-638): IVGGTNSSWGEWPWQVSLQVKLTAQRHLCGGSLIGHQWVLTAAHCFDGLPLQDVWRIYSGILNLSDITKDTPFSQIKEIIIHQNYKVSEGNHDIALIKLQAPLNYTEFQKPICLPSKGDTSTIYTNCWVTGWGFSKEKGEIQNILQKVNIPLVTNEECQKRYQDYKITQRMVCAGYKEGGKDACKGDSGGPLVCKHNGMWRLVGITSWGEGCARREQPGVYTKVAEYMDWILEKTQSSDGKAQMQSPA
# Sequence of Human plasma kallikrein (P03952 20-390 partner): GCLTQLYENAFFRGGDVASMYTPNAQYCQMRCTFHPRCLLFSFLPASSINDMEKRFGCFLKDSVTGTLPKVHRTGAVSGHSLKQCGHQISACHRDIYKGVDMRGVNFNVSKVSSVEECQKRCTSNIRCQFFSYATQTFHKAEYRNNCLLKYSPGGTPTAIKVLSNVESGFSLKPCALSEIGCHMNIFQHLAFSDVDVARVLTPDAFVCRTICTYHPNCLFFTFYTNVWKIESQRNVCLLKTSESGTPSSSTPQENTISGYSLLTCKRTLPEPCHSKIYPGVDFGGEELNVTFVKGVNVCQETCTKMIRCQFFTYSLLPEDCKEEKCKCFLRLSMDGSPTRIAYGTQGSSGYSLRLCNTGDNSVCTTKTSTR
row,Structure (SMILES),IC50 [nM]
1,"CCN(c1cccc(F)c1)c1ccc2c(c1)[C@H]1O[C@@H]2c2ccc(C(=O)NCc3c(C)cc(N)nc3C)cc21 (single isomer, unassigned) [Example 230]",12
2,"N=C(N)c1ccc(CNC(=O)c2ccc3c(c2)[C@@H]2O[C@H]3c3ccc(Oc4cccc(F)c4)cc32)cc1 (single isomer, unassigned) [Example 231]",33.9
3,"Cc1cc(N)nc(C)c1CNC(=O)c1ccc2c(c1)[C@@H]1O[C@H]2c2ccc(CN3CCCN(C)C3=O)cc21 (single isomer, unassigned) [Example 235]",12.9
4,"Nc1noc2c(CNC(=O)c3ccc4c(c3)[C@@H]3O[C@H]4c4ccc(-c5ccccc5F)cc43)cccc12 (single isomer, unassigned) [Example 237]",10000
5,"Cc1c(CNC(=O)c2ccc3c(c2)[C@@H]2O[C@H]3c3ccc(-c4ccccc4F)cc32)cnc(N)c1C (single isomer, unassigned) [Example 242]",2750
6,"Nc1noc2ccc(NC(=O)c3ccc4c(c3)[C@@H]3O[C@H]4c4ccc(-c5ccc(F)cc5F)cc43)cc12 (single isomer, unassigned) [Example 245]",10000
7,"Cc1nc(N)cc(C(F)(F)F)c1CNC(=O)c1ccc2c(c1)[C@@H]1O[C@H]2c2ccc(-c3ccc(F)cc3F)cc21 (single isomer, unassigned) [Example 246]",10700
8,"Cc1nc(N)cc(C2CCOCC2)c1CNC(=O)c1ccc2c(c1)[C@@H]1O[C@H]2c2ccc(-c3ccc(F)cc3F)cc21 (single isomer, unassigned) [Example 247]",5.01
9,"Cc1cc(N)nc(C)c1CNC(=O)c1ccc2c(c1)[C@@H]1O[C@H]2c2ccc(N(c3cccc(F)c3)C(C)C)cc21 (single isomer, unassigned) [Example 249]",93.3
10,"CCCN(c1cccc(F)c1)c1ccc2c(c1)[C@H]1O[C@@H]2c2ccc(C(=O)NCc3c(C)cc(N)nc3C)cc21 (single isomer, unassigned) [Example 250]",33.1
11,"Cc1cc(N)nc(C)c1CNC(=O)c1ccc2c(c1)[C@@H]1O[C@H]2c2ccc(-c3cn4ccccc4n3)cc21 (single isomer, unassigned) [Example 252]",93.3
12,"Nc1cc(C2CC2)c(CNC(=O)c2ccc3c(c2)[C@@H]2O[C@H]3c3ccc(-c4ccc(F)cc4F)cc32)c(C2CC2)n1 (single isomer, unassigned) [Example 257]",200000
13,"Cc1cc(N)nc(C)c1CNC(=O)c1ccc2c(c1)[C@@H]1O[C@H]2c2ccc(N(c3cccc(F)c3)S(C)(=O)=O)cc21 (single isomer, unassigned) [Example 260]",186
14,"Cc1cc(N)nc(C)c1CNC(=O)c1ccc2c(c1)[C@@H]1O[C@H]2c2ccc(N(C)c3cccc(Cl)c3)cc21 (single isomer, unassigned) [Example 262]",8.91
15,"COc1ccc(Cl)c(CNC(=N)c2ccc3c(c2)[C@@H]2O[C@H]3c3ccc(-c4ccc(F)cc4F)cc32)c1F (single isomer, unassigned) [Example 264]",2400
16,"Cc1nc(N)cc(C(C)C)c1CNC(=O)c1ccc2c(c1)[C@@H]1O[C@H]2c2ccc(-c3cc[n+]([O-])cc3F)cc21 (single isomer, unassigned) [Example 265]",91.2
17,"Cc1nc(N)cc(C2=CCOC2)c1CNC(=O)c1ccc2c(c1)[C@@H]1O[C@H]2c2ccc(-c3ccc(F)cc3F)cc21 (single isomer, unassigned) [Example 267]",97.7
18,"CCOC(=O)N=C(N)c1cc(F)c(CNC(=O)c2ccc3c(c2)[C@@H]2O[C@H]3c3ccc(-c4ccc(F)cc4F)cc32)c(F)c1 (single isomer, unassigned) [Example 269]",1230
19,"Cc1nc(N)cc(C2CC2)c1CNC(=O)c1ccc2c(c1)[C@@H]1O[C@H]2c2ccc(-c3cc[n+]([O-])cc3F)cc21 (single isomer, unassigned) [Example 278]",34.7

# Now from value to molecule:
row,IC50 [nM],Structure (SMILES)
1,38.9,"N=C(N)c1ccc(CNC(=O)c2ccc3c(c2)[C@@H]2O[C@H]3c3ccc(N4CC5CCC(C4)O5)cc32)cc1 (single isomer, unassigned) [Example 232]"
2,7.08,"CCc1ccc2c(c1)[C@H]1O[C@@H]2c2ccc(C(=O)NCc3ccc(C(=N)N)cc3)cc21 (single isomer, unassigned) [Example 233]"
3,10000,"CCN(C(=O)c1ccccc1)c1ccc2c(c1)[C@H]1O[C@@H]2c2ccc(C(=O)NCc3c(C)cc(N)nc3C)cc21 (single isomer, unassigned) [Example 234]"
4,2,"N=C(N)c1ccc(CNC(=O)c2ccc3c(c2)[C@@H]2O[C@H]3c3ccc(N4CCCC4)cc32)cc1 (single isomer, unassigned) [Example 236]"
5,324,"N=C(N)c1ccc(CNC(=O)c2ccc3c(c2)[C@@H]2O[C@H]3c3ccccc32)cc1 (single isomer, unassigned) [Example 238]"
6,234,"CCN(c1ccc2c(c1)[C@H]1O[C@@H]2c2ccc(C(=O)NCc3c(C)cc(N)nc3C)cc21)c1ccccc1F (single isomer, unassigned) [Example 239]"
7,10700,"N=C(N)c1ccc(NC(=O)c2ccc3c(c2)[C@@H]2O[C@H]3c3ccc(-c4ccc(F)cc4F)cc32)cc1 (single isomer, unassigned) [Example 244]"
8,2570,"CCc1cc(N)nc(CC)c1CNC(=O)c1ccc2c(c1)[C@@H]1O[C@H]2c2ccc(-c3ccc(F)cc3F)cc21 (single isomer, unassigned) [Example 248]"
9,100000,"COc1ccc(CNC(=O)c2ccc3c(c2)[C@@H]2O[C@H]3c3ccc(-c4ccccc4F)cc32)cc1 (single isomer, unassigned) [Example 253]"
10,19.1,"Cc1cc(N)nc(C)c1CNC(=O)c1ccc2c(c1)[C@@H]1O[C@H]2c2ccc(Cc3ccccc3)cc21 (single isomer, unassigned) [Example 254]"
11,0.759,"N=C(N)c1cc(F)c(CNC(=O)c2ccc3c(c2)[C@@H]2O[C@H]3c3ccc(-c4ccc(F)cc4F)cc32)c(F)c1 (single isomer, unassigned) [Example 256]"
12,10000,"N=C(N)c1cccc(NC(=O)c2ccc3c(c2)[C@@H]2O[C@H]3c3ccc(-c4ccc(F)cc4F)cc32)c1 (single isomer, unassigned) [Example 258]"
13,2,"N=C(N)c1ccc(CNC(=O)c2ccc3c(c2)[C@@H]2O[C@H]3c3ccc(C4CC4)cc32)cc1 (single isomer, unassigned) [Example 259]"
14,5.01,"N=C(N)c1ccc(CNC(=O)c2ccc3c(c2)[C@@H]2O[C@H]3c3ccc(-c4ccc(F)cc4F)cc32)cn1 (single isomer, unassigned) [Example 268]"
15,100000,"O=C(NCc1ccc(-c2noc(=O)[nH]2)cc1)c1ccc2c(c1)[C@@H]1O[C@H]2c2ccc(-c3ccc(F)cc3F)cc21 (single isomer, unassigned) [Example 270]"
16,6030,"CCOC(=O)N=C(N)c1ccc(CNC(=O)c2ccc3c(c2)[C@@H]2O[C@H]3c3ccc(-c4ccc(F)cc4F)cc32)cc1 (single isomer, unassigned) [Example 273]"
17,2,"N=C(N)c1cc(F)c(CNC(=O)c2ccc3c(c2)[C@@H]2O[C@H]3c3ccc(-c4nccs4)cc32)c(F)c1 (single isomer, unassigned) [Example 275]"
18,35.5,"CC(C)(O)c1ccc2c(c1)[C@H]1O[C@@H]2c2ccc(C(=O)NCc3ccc(C(=N)N)cc3)cc21 (single isomer, unassigned) [Example 277]"
